Among the test systems are A549 NSCLC; COLO 205 colon; HCT-15 colon; MDA-N; MOLT-4 leukemia; RXF 393 renal; SK-OV-3 ovarian; SW-620 colon; T-47D breast; SNB-75 CNS.
Common to all, as to experiment: inhibition of tumour cell growth, NCI panel, 48 h

The structures appear in SMILES notation.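 Grown in 96-well plates, cells were treated for 48 hours with each compound at five concentrations. Insufficient inhibition: endpoint recorded as highest concentration tested. TGI is the concentration that stops growth completely.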

Among the data in PubChem BioAssay (NCI) are TGI values, retold here.

As to `Cc1ccc(N2C(=O)C3c4[nH]c5ccccc5c4C4CCC(C(C)(C)C)CC4C3C2=O)cc1` (centres undefined), the TGI is 23.1 µM in the assay with A549 NSCLC; 22.5 µM with COLO 205 colon; over 100 µM in the assay on HCT-15 colon; 44.1 µM in the assay with MDA-N; 9.2 µM in the assay on MOLT-4 leukemia; 22.1 µM with RXF 393 renal. For the same compound, the TGI is 28.2 µM in the assay on SK-OV-3 ovarian, over 47.4 µM with SW-620 colon and 36 µM in the assay with T-47D breast.

On to `C1=NCCNCCN=Cc2ccc(cc2)OCc2cccc(n2)COc2ccc1cc2`, for which the TGI with A549 NSCLC, with COLO 205 colon, with HCT-15 colon, in the assay on MDA-N, in the assay on MOLT-4 leukemia and in the assay on RXF 393 renal was over 100 µM throughout. The TGI in the assay on SK-OV-3 ovarian, in the assay with SNB-75 CNS, in the assay with SW-620 colon and in the assay on T-47D breast was over 100 µM in each case.

`COC(=O)C1CC2(CCC1=O)Cc1ccccc1C2=O` (centres undefined): the TGI in the assay on A549 NSCLC, in the assay on COLO 205 colon, with HCT-15 colon, with MDA-N, in the assay with MOLT-4 leukemia and in the assay with RXF 393 renal was over 100 µM in each case. Further, the TGI in the assay on SK-OV-3 ovarian, in the assay with SNB-75 CNS, in the assay with SW-620 colon and with T-47D breast was over 100 µM each time.

As to `COc1cc(OC)c(OC)cc1/C=N/N=C(\N)NO`, the TGI in the assay with A549 NSCLC, with COLO 205 colon, in the assay on HCT-15 colon, in the assay on MDA-N, with MOLT-4 leukemia and in the assay on RXF 393 renal was over 100 µM each time. In addition, the TGI with SK-OV-3 ovarian was over 100 µM; in the assay on SNB-75 CNS, 93.5 µM; with SW-620 colon, over 100 µM; in the assay with T-47D breast, over 100 µM.

`CC1C(c2ccccc2)OP(=O)(OC(C#N)c2ccccc2)N1C` (centres undefined): the TGI in the assay with A549 NSCLC, with COLO 205 colon, in the assay on HCT-15 colon, in the assay on MDA-N, in the assay on MOLT-4 leukemia and with RXF 393 renal was over 100 µM throughout. The TGI in the assay on SK-OV-3 ovarian, with SNB-75 CNS, in the assay on SW-620 colon and in the assay on T-47D breast was over 100 µM each time.

Turning to `CC1(CCC2C=CCC2)CCCNC1=S` (centres undefined), the TGI in the assay with A549 NSCLC, with HCT-15 colon, in the assay on MDA-N, with MOLT-4 leukemia, in the assay with RXF 393 renal and with SK-OV-3 ovarian was over 10 µM each time. Also, the TGI in the assay on SNB-75 CNS, in the assay on SW-620 colon and with T-47D breast was over 10 µM in each case.

Turning to `CC(=O)OCC(OC(C)=O)C(OC(C)=O)C(C=NN(C(C)=O)S(=O)(=O)c1ccc(/C=C2\NC(=O)NC2=O)cc1)OC(C)=O` (centres undefined), the TGI with A549 NSCLC, in the assay on COLO 205 colon, in the assay on HCT-15 colon, with MDA-N, with MOLT-4 leukemia and with RXF 393 renal was over 100 µM each time. For the same compound, the TGI with SK-OV-3 ovarian, in the assay with SNB-75 CNS, in the assay on SW-620 colon and in the assay on T-47D breast was over 100 µM each time.

Turning to `COC(=O)C1=CSC2(S1)C(C(=O)OC)=CSc1c2ssc1=Nc1ccccc1` (centres undefined), the TGI is 14.6 µM in the assay with A549 NSCLC; 4.37 µM in the assay with COLO 205 colon; over 100 µM in the assay with MDA-N; 3.55 µM with MOLT-4 leukemia; 6.12 µM in the assay with RXF 393 renal; 9.9 µM with SK-OV-3 ovarian. Besides, the TGI with SNB-75 CNS was 6.09 µM; in the assay on SW-620 colon, 8.76 µM; in the assay on T-47D breast, over 100 µM.

For `N#C/C(=C\c1ccccc1)C(=O)Nc1nnc(-c2ccccc2)o1`, the TGI was over 100 µM with A549 NSCLC; 80.4 µM with COLO 205 colon; over 100 µM with HCT-15 colon; over 100 µM in the assay on MDA-N; over 100 µM in the assay on MOLT-4 leukemia; over 100 µM in the assay with RXF 393 renal. Besides, the TGI in the assay with SK-OV-3 ovarian, with SNB-75 CNS, in the assay with SW-620 colon and in the assay with T-47D breast was over 100 µM throughout.

As for `COC(=O)[C@@H]1CN(C(=O)CCc2ccccc2)C(=O)N1C(=O)OCc1ccccc1`, the TGI in the assay with A549 NSCLC, with COLO 205 colon, in the assay with HCT-15 colon, in the assay with MDA-N, in the assay on MOLT-4 leukemia and in the assay on RXF 393 renal was over 100 µM each time. The TGI with SK-OV-3 ovarian, in the assay on SNB-75 CNS, with SW-620 colon and in the assay on T-47D breast was over 100 µM in each case.

Take `CC12Nc3ccccc3N1C(=O)c1ccccc12` (centres undefined): the TGI in the assay with A549 NSCLC, in the assay with COLO 205 colon, in the assay on HCT-15 colon, in the assay on MDA-N, in the assay on MOLT-4 leukemia and in the assay on RXF 393 renal was over 100 µM throughout. Further, the TGI in the assay with SK-OV-3 ovarian, with SW-620 colon and with T-47D breast was over 100 µM in each case.

Regarding `CCCCCC/C=C\CCCCCCCCCc1cccc(O)c1C(=O)O`, the TGI with A549 NSCLC, with COLO 205 colon, in the assay with HCT-15 colon, with MDA-N, in the assay on MOLT-4 leukemia and in the assay on RXF 393 renal was over 100 µM throughout. For the same compound, the TGI in the assay on SK-OV-3 ovarian, with SNB-75 CNS, in the assay on SW-620 colon and in the assay with T-47D breast was over 100 µM each time.

With `O=c1oc2ccccc2c(Nc2ccc3c(c2)S(=O)(=O)c2ccccc2O3)c1[N+](=O)[O-]`, the TGI was over 100 µM with A549 NSCLC; 47.6 µM in the assay on COLO 205 colon; over 100 µM with HCT-15 colon; 85.3 µM in the assay on MDA-N; 51.2 µM in the assay with RXF 393 renal; 68 µM in the assay on SK-OV-3 ovarian. Also, the TGI was 52.4 µM in the assay with SNB-75 CNS, over 100 µM in the assay on SW-620 colon and 62.3 µM with T-47D breast.

As to `O=C1C2CC=CCC2C(=O)N1n1c(-c2ccccc2)n[nH]c1=O` (centres undefined), the TGI with A549 NSCLC, with COLO 205 colon, with HCT-15 colon, in the assay on MDA-N, in the assay with MOLT-4 leukemia and in the assay on RXF 393 renal was over 100 µM in each case. Moreover, the TGI with SK-OV-3 ovarian, with SW-620 colon and in the assay on T-47D breast was over 100 µM each time.
